{
  "source": "paper PMC1079869",
  "about": "(BMC Neuroscience, 2005)",
  "key": {"[1]": {"biological_target": "T1, c-MYC-tagged human delta opioid receptor (Homo sapiens, UniProt P41143)", "T1 sequence (P41143 whole entry)": "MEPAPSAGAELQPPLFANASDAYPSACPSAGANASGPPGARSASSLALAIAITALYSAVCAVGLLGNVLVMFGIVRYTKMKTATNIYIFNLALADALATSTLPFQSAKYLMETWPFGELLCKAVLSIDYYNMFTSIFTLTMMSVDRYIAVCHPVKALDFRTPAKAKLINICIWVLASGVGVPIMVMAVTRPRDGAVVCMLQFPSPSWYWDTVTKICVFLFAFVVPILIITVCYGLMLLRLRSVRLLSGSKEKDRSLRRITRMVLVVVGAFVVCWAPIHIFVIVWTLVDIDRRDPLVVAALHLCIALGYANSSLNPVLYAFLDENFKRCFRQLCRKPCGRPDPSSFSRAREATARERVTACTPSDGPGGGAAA", "assay": "Tb-DeltI saturation binding on CHO/MYChDOR cell membranes (time-resolved fluorometry)", "details": "0.01 – 781.25 nM Tb-DeltI; 6 μg membranes; pH 7.5, 90 min room temperature; nonspecific with 1 μM DeltI; Figure 4B", "procedure": "The cells were collected with PBS + 0.2 % EDTA (w/v) and washed with cold PBS. The CHO/MYChDOR or CHO-K1 cells were suspended into ice-cold 50 mM Tris/HCl, 5 mM EDTA, pH 7.5 and homogenized with Potter S-homogenisator on ice. The homogenate was centrifuged 47800 × g at 4°C and the pellet was suspended into the Tris/EDTA buffer and the homogenization/centrifugation was repeated. The pellet was suspended into cold binding assay incubation buffer and the protein content was measured with the Bradford method.\n6 μg of crude membrane preparations or whole cells (25 000 cell/well) that were plated one day before experiment and fixed with 4 % PFA for 10 min at room temperature, were used in the saturation binding experiments. The whole cell assays were carried out on normal cell culture plates and the assays with membrane preparations on special filter plates (Pall Life Sciences). […] Thereafter, 40 μl Delfia enhancer that changes the pH of the assay solution appropriate for Tb-fluorescence was added, and the plates were further incubated for 5 min on a shaker. The time-resolved fluorescence of the released Tb-ion was measured with Victor^2 Multilabel counter (Perkin Elemer Wallac, Turku, Finland)."}, "[2]": {"biological_target": "T1, c-MYC-tagged human delta opioid receptor", "assay": "Tb-DeltI binding on CHO/MYChDOR whole cells, effect of (1DMe)NPYF (time-resolved fluorometry)", "details": "whole cells, relative BMAX, n = 3", "procedure": "6 μg of crude membrane preparations or whole cells (25 000 cell/well) that were plated one day before experiment and fixed with 4 % PFA for 10 min at room temperature, were used in the saturation binding experiments. The whole cell assays were carried out on normal cell culture plates and the assays with membrane preparations on special filter plates (Pall Life Sciences). The cells or membranes were incubated in 50 mM Tris/HCl pH 7.5; 2.5 mM MgCl2; 60 mM NaCl; 25 μM EDTA, 0.2 % BSA (w/v) for 90 min at room temperature with 0.01 – 781.25 nM Tb-DeltI in the presence or absence of 1 or 5 μM unlabeled DeltI. To study the effect of (1DMe)NPYF on the Tb-DeltI binding, 1–1000 nM (1DMe)NPYF was added together with unlabeled DeltI. After the incubation the unbound Tb-DeltI was removed by washing the plates four times with 50 mM Tris/HCl pH 7.5; 2.5 mM MgCl2. Vacuum pump system was used to wash the filter plates. Since the chelate-bound Tb-ion is nonfluorescent, it needed to be released from the complex. In order to release Tb-ion from the chelate 150 μl Delfia enhancement solution was added to the wells and the plates were incubated on a shaker for 15 min. Thereafter, 40 μl Delfia enhancer that changes the pH of the assay solution appropriate for Tb-fluorescence was added, and the plates were further incubated for 5 min on a shaker. The time-resolved fluorescence of the released Tb-ion was measured with Victor^2 Multilabel counter (Perkin Elemer Wallac, Turku, Finland)."}},
  "note": "Square brackets hold non-standard residues; d marks the D form. Peptide text beside a SMILES is read from it.",
  "data": [
    {"smiles": "CC(C)[C@H](NC(=O)[C@H](CC(=O)O)NC(=O)[C@H](Cc1ccccc1)NC(=O)[C@@H](C)NC(=O)[C@H](Cc1ccc(O)cc1)NC(=O)[C@@H](N)CS)C(=O)N[C@H](C(=O)NCC(N)=O)C(C)C", "note": "[Tb-DeltI] (H-CY[dA]FDVVG-NH2; N-terminus and C-terminus assumed)", "values": [
      {"measurement": "Tb-DeltI binding to cell membranes", "setting": "[1]", "result": "dose-dependently and the binding was saturable at a nanomolar range"},
      {"measurement": "BMAX for Tb-DeltI", "setting": "[2]; 0 nM (1DMe)NPYF", "result": "1.60 ± 0.06", "unit": "pmol/cell"},
      {"measurement": "BMAX for Tb-DeltI", "setting": "[2]; in presence of 1 nM (1DMe)NPYF, *** p < 0.001 vs absence of (1DMe)NPYF", "result": "0.70 ± 0.08 *** pmol/cell"},
      {"measurement": "BMAX for Tb-DeltI", "setting": "[2]; in presence of 10 nM (1DMe)NPYF, *** p < 0.001 vs absence of (1DMe)NPYF", "result": "0.89 ± 0.06 *** pmol/cell"},
      {"measurement": "BMAX for Tb-DeltI", "setting": "[2]; in presence of 100 nM (1DMe)NPYF", "result": "1.42 ± 0.11", "unit": "pmol/cell"},
      {"measurement": "BMAX for Tb-DeltI", "setting": "[2]; in presence of 1000 nM (1DMe)NPYF", "result": "1.49 ± 0.10", "unit": "pmol/cell"}
    ]}
  ]
}
